According to ChEMBL document CHEMBL1909046, “DrugMatrix in vitro pharmacology data”:

How the values were obtained:
[1] = DRUGMATRIX: Glutamate, NMDA, Agonism radioligand binding (ligand: [3H] CGP-39653); assay type: cell membranes, Rattus norvegicus, Wistar, Cerebral cortex, Membrane; conditions: Not Active = under 50% inhibition at 10 µM
Glycine receptor = Glycine receptor (Rattus norvegicus, UniProt P22771+P24524+P07727+P20781); assay type: cell membranes, Wistar, Spinal cord, Membrane; further: in other assays of this panel Not Active means under 50% inhibition at 10 µM
Leukotriene C4 synthase = target: T1, Leukotriene C4 synthase (Cavia porcellus, UniProt A6XA80); assay type: tissue-based, Lung;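 further: enzyme inhibition assay of leukotriene C4 synthase, using LTA4 as the substrate; in other assays of this panel Not Active means under 50% inhibition at 10 µM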
T1 sequence (A6XA80 whole entry): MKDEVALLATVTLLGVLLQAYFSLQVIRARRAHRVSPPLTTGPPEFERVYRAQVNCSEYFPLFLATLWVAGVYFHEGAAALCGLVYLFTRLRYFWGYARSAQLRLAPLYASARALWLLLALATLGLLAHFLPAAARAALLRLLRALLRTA

Melanocortin receptor 5 = Melanocortin receptor 5 (Homo sapiens, UniProt P33032); assay type: cell membranes, HEK293, Membrane; conditions: hek293; further: in other assays of this panel Not Active means under 50% inhibition at 10 µM
[2] = DRUGMATRIX: Platelet-Derived Growth Factor (PDGF) radioligand binding (ligand: [125I] PDGF); assay type: cell-based; conditions: nih3t3; Not Active = under 50% inhibition at 10 µM
[3] = target: Protein phosphatase 3 catalytic subunit alpha (Homo sapiens, UniProt Q08209); design: species or system Escherichia coli;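 further: inhibition of calcineurin (PP2B) enzyme activity, measured with DiFMUP as the substrate; in other assays of this panel Not Active means under 50% inhibition at 10 µM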
Acetylcholinesterase = Acetylcholinesterase (Homo sapiens, UniProt P22303); assay: DRUGMATRIX: Acetylcholinesterase enzyme inhibition (substrate: acetylthiocholine); assay type: cell-based, HEK293; conditions: hek293; Not Active = under 50% inhibition at 10 µM
[4] = target: Voltage-gated inwardly rectifying potassium channel KCNH2 (Homo sapiens, UniProt Q12809); conditions: hek293; further: in other assays of this panel Not Active means under 50% inhibition at 10 µM
Chain of Voltage-gated inwardly rectifying potassium channel KCNH2 (Q12809 whole entry): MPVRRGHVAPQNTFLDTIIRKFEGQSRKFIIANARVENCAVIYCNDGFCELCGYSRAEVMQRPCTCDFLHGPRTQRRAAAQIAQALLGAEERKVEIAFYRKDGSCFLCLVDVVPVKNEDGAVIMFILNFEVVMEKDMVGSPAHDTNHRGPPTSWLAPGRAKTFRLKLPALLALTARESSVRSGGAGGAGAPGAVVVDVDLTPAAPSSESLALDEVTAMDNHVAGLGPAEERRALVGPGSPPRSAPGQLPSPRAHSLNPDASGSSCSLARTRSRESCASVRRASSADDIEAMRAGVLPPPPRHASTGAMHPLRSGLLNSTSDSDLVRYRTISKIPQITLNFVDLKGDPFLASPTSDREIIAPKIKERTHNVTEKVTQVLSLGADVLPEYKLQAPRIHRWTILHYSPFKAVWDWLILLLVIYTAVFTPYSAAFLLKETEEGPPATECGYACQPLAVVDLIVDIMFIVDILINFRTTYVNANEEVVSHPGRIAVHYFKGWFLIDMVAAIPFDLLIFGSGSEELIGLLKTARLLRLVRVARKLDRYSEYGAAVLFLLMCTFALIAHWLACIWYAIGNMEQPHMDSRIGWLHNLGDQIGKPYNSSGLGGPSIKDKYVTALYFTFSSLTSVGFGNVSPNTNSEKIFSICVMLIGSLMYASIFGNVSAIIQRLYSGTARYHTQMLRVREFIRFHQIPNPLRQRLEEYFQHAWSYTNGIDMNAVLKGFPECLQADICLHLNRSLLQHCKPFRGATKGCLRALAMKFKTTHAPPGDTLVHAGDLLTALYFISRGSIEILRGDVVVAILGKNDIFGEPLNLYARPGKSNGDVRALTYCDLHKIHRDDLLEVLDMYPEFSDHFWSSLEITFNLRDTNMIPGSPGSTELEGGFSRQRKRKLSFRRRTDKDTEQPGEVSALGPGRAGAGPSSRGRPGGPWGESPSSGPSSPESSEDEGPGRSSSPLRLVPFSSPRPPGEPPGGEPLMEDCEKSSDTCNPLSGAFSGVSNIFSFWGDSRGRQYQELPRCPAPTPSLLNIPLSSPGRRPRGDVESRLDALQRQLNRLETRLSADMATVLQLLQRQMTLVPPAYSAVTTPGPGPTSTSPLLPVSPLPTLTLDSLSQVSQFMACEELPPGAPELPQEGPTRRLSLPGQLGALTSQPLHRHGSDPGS

Chain of Melanocortin receptor 5 (P33032 whole entry): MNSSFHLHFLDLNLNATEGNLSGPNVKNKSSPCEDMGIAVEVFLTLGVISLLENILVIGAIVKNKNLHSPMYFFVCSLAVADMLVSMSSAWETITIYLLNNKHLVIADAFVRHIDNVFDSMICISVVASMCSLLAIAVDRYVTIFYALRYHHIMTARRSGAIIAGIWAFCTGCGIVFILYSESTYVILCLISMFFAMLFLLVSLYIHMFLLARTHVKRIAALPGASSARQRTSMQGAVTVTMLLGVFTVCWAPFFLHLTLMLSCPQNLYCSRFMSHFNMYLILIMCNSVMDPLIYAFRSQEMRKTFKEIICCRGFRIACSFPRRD
Chain of Acetylcholinesterase (P22303 whole entry): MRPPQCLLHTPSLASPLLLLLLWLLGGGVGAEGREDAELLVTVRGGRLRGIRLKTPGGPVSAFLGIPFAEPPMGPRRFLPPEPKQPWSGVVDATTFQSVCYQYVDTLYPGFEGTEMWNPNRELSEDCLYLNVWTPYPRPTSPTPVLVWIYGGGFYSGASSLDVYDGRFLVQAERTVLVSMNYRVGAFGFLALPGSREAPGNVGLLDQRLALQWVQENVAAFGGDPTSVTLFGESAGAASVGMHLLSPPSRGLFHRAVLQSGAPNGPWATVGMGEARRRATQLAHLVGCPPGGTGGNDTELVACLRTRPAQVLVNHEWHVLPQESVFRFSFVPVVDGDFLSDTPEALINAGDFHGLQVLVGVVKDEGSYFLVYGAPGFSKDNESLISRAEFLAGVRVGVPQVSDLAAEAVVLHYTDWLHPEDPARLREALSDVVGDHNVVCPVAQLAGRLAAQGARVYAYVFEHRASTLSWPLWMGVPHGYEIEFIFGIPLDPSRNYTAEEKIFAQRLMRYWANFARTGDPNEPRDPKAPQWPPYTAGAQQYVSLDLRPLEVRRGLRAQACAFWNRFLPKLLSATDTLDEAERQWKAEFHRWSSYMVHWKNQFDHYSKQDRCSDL

CC(C)CN(C[C@@H](O)[C@H](Cc1ccccc1)NC(=O)O[C@H]1CCOC1)S(=O)(=O)c1ccc(N)cc1
Not Active: IC50 [1] | Ki [1] | IC50 (Glycine receptor) | IC50 (Leukotriene C4 synthase) | IC50 (Melanocortin receptor 5) | IC50 [2] | Ki [2] | IC50 [3] | IC50 (Acetylcholinesterase) | IC50 [4] | Ki [4]

C[C@](N)(Cc1ccc(O)c(O)c1)C(=O)O [METHYLDOPA]
Not Active: IC50 [1] | Ki [1] | IC50 (Glycine receptor) | IC50 (Leukotriene C4 synthase) | IC50 (Melanocortin receptor 5) | IC50 [2] | Ki [2] | IC50 [3] | IC50 (Acetylcholinesterase) | IC50 [4] | Ki [4]

Nc1nc(N)nc(-c2cc(Cl)ccc2Cl)n1.O=C(O)/C=C\C(=O)O [IRSOGLADINE MALEATE]
Not Active: IC50 [1] | Ki [1] | IC50 (Glycine receptor) | IC50 (Leukotriene C4 synthase) | IC50 (Melanocortin receptor 5) | IC50 [2] | Ki [2] | IC50 [3] | IC50 (Acetylcholinesterase) | IC50 [4] | Ki [4]

Nc1ncn([C@@H]2O[C@H](CO)[C@@H](O)[C@H]2O)c(=O)n1 [AZACITIDINE]
Not Active: IC50 [1] | Ki [1] | IC50 (Glycine receptor) | IC50 (Leukotriene C4 synthase) | IC50 (Melanocortin receptor 5) | IC50 [2] | Ki [2] | IC50 [3] | IC50 (Acetylcholinesterase) | IC50 [4] | Ki [4]

LIPOPOLYSACCHARIDE E. COLI O55:B5
Not Active: IC50 [1] | Ki [1] | IC50 (Glycine receptor) | Ki (Glycine receptor) | IC50 (Leukotriene C4 synthase) | Ki (Leukotriene C4 synthase) | IC50 (Melanocortin receptor 5) | Ki (Melanocortin receptor 5) | IC50 [2] | Ki [2] | IC50 [3] | Ki [3] | IC50 (Acetylcholinesterase) | Ki (Acetylcholinesterase) | IC50 [4] | Ki [4]

CCCCN1CCCC[C@H]1C(=O)Nc1c(C)cccc1C [LEVOBUPIVACAINE]
Not Active: IC50 [1] | Ki [1] | IC50 (Glycine receptor) | IC50 (Leukotriene C4 synthase) | IC50 (Melanocortin receptor 5) | IC50 [2] | Ki [2] | IC50 [3] | IC50 (Acetylcholinesterase) | IC50 [4] | Ki [4]

CC(C)C(=O)Nc1ccc([N+](=O)[O-])c(C(F)(F)F)c1 [FLUTAMIDE]
Not Active: IC50 [1] | Ki [1] | IC50 (Glycine receptor) | IC50 (Leukotriene C4 synthase) | IC50 (Melanocortin receptor 5) | IC50 [2] | Ki [2] | IC50 [3] | IC50 (Acetylcholinesterase) | IC50 [4] | Ki [4]

CC(C)[C@H]1C(=O)N2CCC[C@H]2[C@]2(O)O[C@](NC(=O)[C@@H]3C=C4c5cccc6[nH]cc(c56)C[C@H]4N(C)C3)(C(C)C)C(=O)N12 [ERGOCORNINE]
Not Active: IC50 [1] | Ki [1] | IC50 (Glycine receptor) | IC50 (Leukotriene C4 synthase) | IC50 (Melanocortin receptor 5) | IC50 [2] | Ki [2] | IC50 [3] | IC50 (Acetylcholinesterase) | IC50 [4] | Ki [4]

CC(C)(Oc1ccc(Cl)cc1)C(=O)O [CLOFIBRIC ACID]
Not Active: IC50 [1] | Ki [1] | IC50 (Glycine receptor) | IC50 (Leukotriene C4 synthase) | IC50 (Melanocortin receptor 5) | IC50 [2] | Ki [2] | IC50 [3] | IC50 (Acetylcholinesterase) | IC50 [4] | Ki [4]

CCCC1O[C@@H]2C[C@H]3[C@@H]4CCC5=CC(=O)C=C[C@]5(C)[C@H]4[C@@H](O)C[C@]3(C)[C@]2(C(=O)CO)O1 (some centres not stated) [BUDESONIDE]
Not Active: IC50 [1] | Ki [1] | IC50 (Glycine receptor) | IC50 (Leukotriene C4 synthase) | IC50 (Melanocortin receptor 5) | IC50 [2] | Ki [2] | IC50 [3] | IC50 (Acetylcholinesterase) | IC50 [4] | Ki [4]

Clc1cccc(Cl)c1NC1=NCCN1 [CLONIDINE]
Not Active: IC50 [1] | Ki [1] | IC50 (Glycine receptor) | IC50 (Leukotriene C4 synthase) | IC50 (Melanocortin receptor 5) | IC50 [2] | Ki [2] | IC50 [3] | IC50 (Acetylcholinesterase) | IC50 [4] | Ki [4]

Cc1onc(O)c1CC(N)C(=O)O (racemic) [(R,S)-AMPA]
Not Active: IC50 [1] | Ki [1] | IC50 (Glycine receptor) | IC50 (Leukotriene C4 synthase) | IC50 (Melanocortin receptor 5) | IC50 [2] | Ki [2] | IC50 [3] | IC50 (Acetylcholinesterase) | IC50 [4] | Ki [4]
